Results: patent US8546574B2, “Conglomerates of tenatoprazole potassium salts” (priority 2006, dated 2013)
One block for each compound: values may come before it.

Tests used:
[1] = Solubility of the racemic potassium salt solvated in methanol in methanolic potassium hydroxide solution; type: physicochemical; details: KOH excess about 0.2 molar equivalent
[2] = Solubility of the racemic potassium salt solvated with ethanol in ethanolic potassium hydroxide solution; type: physicochemical; details: KOH excess about 0.2 molar equivalent
[3] = Solubility of the racemic potassium salt solvated with ethylene glycol in ethanol/ethylene glycol mixture (80% V-20% V) with potassium hydroxide excess; type: physicochemical; details: ethanol/ethylene glycol (80% V-20% V), KOH excess about 0.2 molar equivalent
[4] = compared with S-tenatoprazole itself and other proton-pump inhibitors; cited from earlier work
[5] = cited from earlier work
gastric lesions = details: compared with the other known proton-pump inhibitors; cited from earlier work
[6] = relative to the other proton-pump inhibitors, for instance omeprazole or lansoprazole

Structure (SMILES): COc1ccc2nc([S+]([O-])Cc3ncc(C)c(OC)c3C)[n-]c2n1.[K+] (racemic) [racemic mixture of the potassium salt solvated in methanol, potassium tenatoprazole dimethanolate]
Solubility (mass %) ([1]; 30 ° C.): 4.4 mass % | Solubility (mass %) ([1]; 38 ° C.): 5.2 mass % | Solubility (mass %) ([1]; 40 ° C.): 6.5 mass % | Solubility (mass %) ([1]; 42 ° C.): 7.7 mass % | Solubility (mass %) ([1]; 56 ° C.): 12.2 mass %

Structure (SMILES): COc1ccc2[nH]c([S+]([O-])Cc3ncc(C)c(OC)c3C)nc2n1.O.[Na] (stereo not shown) [S-tenatoprazole sodium salt monohydrate]
solubility [4]: excellent solubility

Structure (SMILES): COc1ccc2[nH]c([S@@+]([O-])Cc3ncc(C)c(OC)c3C)nc2n1 [S-tenatoprazole]
pharmacokinetic properties ([5]; compared with the racemic mixture and the enantiomer of R configuration): significantly different

Structure (SMILES): COc1ccc2nc([S+]([O-])Cc3ncc(C)c(OC)c3C)[nH]c2n1 (stereo not shown) [tenatoprazole, 5-methoxy-2-[[(4-methoxy-3,5-dimethyl-2-pyridyl)methyl]sulfinyl]imidazo[4,5-b]pyridine]
level of relief of the symptoms and of cicatrization of gastric lesions (gastric lesions): greater level of relief of the symptoms and of cicatrization of gastric lesions | duration of action [5, 6]: markedly longer duration of action | plasmatic half-life [5, 6]: about seven times greater

The next lines start with the values.

Solubility (mass %) ([2]; 33.9 ° C.): 4.24 mass % | Solubility (mass %) ([2]; 37 ° C.): 5.3 mass %
Structure (SMILES): COc1ccc2nc([S+]([O-])Cc3ncc(C)c(OC)c3C)[n-]c2n1.[K+] (racemic) [racemic mixture of the potassium salt solvated with ethanol, potassium tenatoprazole diethanolate]

Solubility (mass %) ([3]; 28 ° C.): 20.3 mass % | Solubility (mass %) ([3]; 32 ° C.): 24 mass % | Solubility (mass %) ([3]; 34.5 ° C.): 25.6 mass % | Solubility (mass %) ([3]; 39 ° C.): 33.5 mass %
Structure (SMILES): COc1ccc2nc([S+]([O-])Cc3ncc(C)c(OC)c3C)[n-]c2n1.[K+] (racemic) [racemic mixture of the potassium salt solvated with ethylene glycol, potassium tenatoprazole ethylene glycolate]
